The source of these data is patent publication US4136116A, “Tricyclic compounds” (Hoffmann-La Roche Inc., priority 1975, dated 1979).

Counter-ions that a name gives are not always drawn.

For this data set, the system named is salivation in rabbits. In words: Salivation inhibition in rabbits (pilocarpine-increased salivation; anticholinergic action). Format: in vivo. As to conditions: light urethane narcosis, 3 mg/kg i.v., pilocarpine 5 mg/kg s.c. The protocol:
The low anticholinergic action can be shown by the lack of salivation inhibition in rabbits: The salivation in rabbits under light urethane narcosis was increased by pilocarpine injection (5 mg/kg. s.c.) and the amount of saliva was measured at 5-minute intervals. The inhibition of salivation is expressed as a percentage based upon the salivation of animals which only received pilocarpine.
As for `Cc1cccc2c1C=Cc1ccccc1C2=CCC[N+](C)(C)[O-]` [1-methyl-5-(3-dimethylaminopropylidene)-5H-dibenzo[a,d]cycloheptene N-oxide hydrochloride], the “% Inhibition of Salivation” value is reported as 14%.
To `Cc1cccc2c1CCc1ccccc1C2=CCCN(C)C.Cl` [1-methyl-10,11-dihydro-5-(3-dimethylaminopropylidene)-5H-dibenzo[a,d]cycloheptene hydrochloride] belongs 50%.
To `Cc1cccc2c1CCc1ccccc1C2CCCN(C)C.Cl` (stereo not shown) [1-methyl-10,11-dihydro-5-(3-dimethylaminopropyl)-5H-dibenzo[a,d]cycloheptene hydrochloride] belongs 50%; to `CNCCC=C1c2ccccc2C=Cc2c(C)cccc21.Cl` [1-methyl-5-(3-methylaminopropylidene)-5H-dibenzo[a,d]cycloheptene hydrochloride], 60%; to `CNCCCC1c2ccccc2CCc2c(C)cccc21.Cl` (stereo not shown) [1-methyl-10,11-dihydro-5-(3-methylaminopropyl)-5H-dibenzo[a,d]cycloheptene hydrochloride], 40%.
As for `CNCCC=C1c2ccccc2CCc2c(C)cccc21.Cl` [1-methyl-10,11-dihydro-5-(3-methylaminopropylidene)-5H-dibenzo [a,d]cycloheptene hydrochloride], the “% Inhibition of Salivation” value is reported as 50%.
Take `Cc1cccc2c1C=Cc1ccccc1C2=CCCN(C)C.Cl` [1-methyl-5-(3-dimethylaminopropylidene)-5H-dibenzo[a,d]cycloheptene hydrochloride]: the “% Inhibition of Salivation” value was 60%.
